Test in all cases: cells
Holding throughout (set-up): species or system melanoma cell lines (3D spheres); 3D melanoma tumour sphere viability, CellTiter-Glo 3D luminescence, 7-point dose response
Background: In ATP-based viability assays light output follows the ATP content of the culture.

The subject of one assay is A15. Conditions: 3D tumour spheres, 72 h. As to the method: (§1) Dose responses to TRX-E-009-1 and TRX-E-002-1 were performed using 3D tumour sphere cultures of 21 melanoma cell lines. Cells were dissociated and seeded[17] at previously optimized densities into 384-well Ultra-Low Attachment plates (#3827, Corning). Cells were treated the following day with a 7 point 3-fold dilution series, 5.4 µM to 7.4 nM using a Sciclone ALH 3000 [compound left out] handling robot. Changes in cell viability were assayed at 72 hours using the Cell Titre Glo 3D assay (#G9683, Promega), luminescence reads were performed on a SynergyMx Plate Reader (BioTek Instruments). Luminescence values were normalized to the DMSO/vehicle control prior to comparisons. […] A second independent panel of melanoma cell lines grown as tumour spheres was assessed for sensitivity to both TRX-E-009-1 and TRX-E-002-1. […] As found with the Oncopanel melanoma cell lines, a subset (one third) of the cell lines were sensitive to killing by these BP compounds, with <20% viability at the highest concentration tested. These lines will be referred to as sensitive. The cell lines with >25% viability at the highest dose appear comparatively resistant to killing by the compounds and are referred to as resistant. Subsequent experiments utilized A2058, D04, SKMEL13, and A375 as representative of sensitive cell lines, while A15, SKMEL28, C013, and C002 were used to assess the effects of TRX-E-009-1 and TRX-E-002-1 on resistant lines.

The test system of a further assay is A2058. The settings on record: Homo sapiens, A2058; 3D tumour spheres, 72 h. The procedure: as §1
For another assay, the system named is A375. Conditions: Homo sapiens, A-375; 3D tumour spheres, 72 h. As to the method: as §1
In a further assay the test system is BL. The settings on record: 3D tumour spheres, 72 h. The procedure:
as §1

The subject of another assay is C002. The settings on record: 3D tumour spheres, 72 h. The procedure: as §1
The next assay has as its system C013. Conditions: 3D tumour spheres, 72 h. The procedure:
as §1

The next assay has as its system C045. Conditions: 3D tumour spheres, 72 h. As to the method:
as §1

The next assay has as its system C052. The settings on record: 3D tumour spheres, 72 h. As to the method: as §1
For a further assay, the system named is C054. The settings on record: 3D tumour spheres, 72 h. The procedure: as §1
A further assay has as its system D04. Conditions: 3D tumour spheres, 72 h. As to the method: as §1
The next assay deals with D20. The settings on record: 3D tumour spheres, 72 h. As to the method:
as §1

For a further assay, the system named is D25. Conditions: 3D tumour spheres, 72 h. As to the method:
as §1

The test system of the next assay is D28. Conditions: 3D tumour spheres, 72 h. As to the method: as §1
For the next assay, the system named is HT144. The settings on record: Homo sapiens, HT-144; 3D tumour spheres, 72 h. As to the method:
as §1

A further assay has as its system MM329. Conditions: 3D tumour spheres, 72 h. The procedure:
as §1

The next assay has as its system MM370. The settings on record: 3D tumour spheres, 72 h. As to the method:
as §1

The next assay relates to MM415. Conditions: 3D tumour spheres, 72 h. The procedure: as §1
For another assay, the system named is MM603. Conditions: 3D tumour spheres, 72 h. As to the method:
as §1

The test system of another assay is MM96L. The settings on record: Homo sapiens, MM96L; 3D tumour spheres, 72 h. The procedure:
as §1

In another assay the test system is SKMEL13. The settings on record: 3D tumour spheres, 72 h. The procedure: as §1
The subject of another assay is SKMEL28. The settings on record: Homo sapiens, SK-MEL-28; 3D tumour spheres, 72 h. The procedure:
as §1

Consider `COc1cc([C@@H]2COc3c(ccc(O)c3C)[C@@H]2c2ccc(O)c(F)c2)cc(OC)c1O` (racemic) [TRX-E-009-1], for which the IC50 (commonly the concentration at which inhibition is half-maximal) in the assay on A15 was 0.489 µM; with A2058, 0.292 µM; in the assay with A375, 0.321 µM; with BL it was 0.34 µM; in the assay with C002, 0.977 µM; in the assay with C013, 0.318 µM. Further, the IC50 in the assay on C045 was found to be 0.461 µM; with C052, 0.292 µM; in the assay with C054, 0.857 µM; with D04, 0.253 µM; in the assay on D20 it was 1.11 µM; in the assay with D25, 5.02 µM. Also, the IC50 in the assay with D28 amounted to 0.787 µM; in the assay with HT144, 0.233 µM; in the assay with MM329, 0.178 µM; in the assay with MM370, 0.29 µM; in the assay with MM415, 0.323 µM; with MM603, 0.284 µM. In addition, the IC50 in the assay on MM96L came to 0.281 µM; in the assay on SKMEL13, 0.244 µM; in the assay with SKMEL28 it was 4.58 µM.

(Values after paper PMC5865165, “Mechanism of action of the third generation benzopyrans and evaluation of their broad anti-cancer activity in vitro and in vivo” (Scientific Reports, 2018).)
